Several values for one entry are separate records, joined by “and”; a condition that tells them apart may be missing. Equal values may be shown once.
Columns and labels:
[1] = Human liver microsome stability; conditions: for remaining at 2 h, 3 μM / half-life at 3 μM: human, microsomes; for remaining at 2 h, 3 μM: HLM % remaining, relative percent remaining of prodrug at 120 min; for half-life at 3 μM: HLM t1/2, HLM 1 mg/mL
Experimental: Human liver microsomes (HLMs, 20 mg/mL) and CD-1 mouse liver microsomes (MLMs, 20 mg/mL) were purchased from Xenotech. NADPH was purchased from Sigma-Aldrich and prepared in 10 mM stock solutions of distilled H2O (Invitrogen UltraPure). […] Test compounds and positive controls were initially dissolved in MeOH to make 10 mM stock solutions. Sample solutions were then further diluted in 70/30 MeOH/H2O to 500 μM. Next, the reactions were prepared by mixing human or mouse liver microsomes (55 μL) with potassium phosphate buffer (100 mM, 928 μL) in 1.5 mL Eppendorf tubes. The test compounds (6.6 μL of 500 μM solution) were subsequently added to the suspensions, and the reaction mixtures were incubated at 37 °C for 5 min. Afterward, the liver microsome reactions were initiated with 110 μL of 10 mM NADPH and further incubated at 37 °C for the designated time course of the study. […] Each test compound was run in tandem with positive and negative control experiments for quality assurance. Positive control reactions were conducted at a final volume of 550 μL for a single run of each time point.
For both LM and plasma stability assays, each data point was analyzed in duplicate using in-between blank washes to avoid carry over and to equilibrate the column for the subsequent runs. Averages of these duplicate for individual compounds at each time point were then normalized to the data at 0 min, representing 100% test compound remaining or 0% metabolism. Half-lives (t1/2) were calculated by plotting ln of % test compound remaining versus time and performing linear regression to determine slope.
Metabolic Stability Assays
Liver Microsome Stability
Liver Microsome Stability Assay Setup Example
Quenching Mixture: 100 µL MeOH with ISTD (2 µM d5-7-ethoxycoumarin).
Final Volume After Quenching: 200 µL (100 µL from reaction mixture + 100 µL quencher
solution; ISTD final concentration of 1.0 µM).

[2] = Mouse plasma pharmacokinetics after intravenous dose; type: in vivo, male C57BL/6 mice; conditions: i.v. 3 mg/kg; for k (terminal elimination rate constant): 3 mg/kg; for concentration at 0.1 h / concentration at 0.25 h / concentration at 0.5 h / concentration at 1 h / concentration at 2 h / concentration at 4 h / concentration at 6 h / concentration at 8 h: read-out: mean prodrug concentration in plasma; for Cmax at 8 h / Tmax at 8 h / AUC(0-t) at 8 h: prodrug; for AUC(0-t) at 8 h: read-out: AUC0–8h
Experimental: (§1) To compare the in vivo PK profiles to TXL and our previously reported drug lead 1 (Tables S19 and S26),[39] one group of male C57BL/6 mice were administered a single oral dose (p.o., 10 mg/kg) of 2a, 16g, or 16h (refer to Experimental Methods). Additionally, a separate group of mice were given a single intravenous dose (i.v., 3 mg/kg) of each prodrug to obtain plasma clearance (Cl), volume of distribution (Vd), and oral bioavailability data. Blood was sampled at 8 time points over 8 h (i.v.) or 24 h (p.o.) postdose, and plasma was isolated via centrifugation. Tissues (liver, kidney, and brain) were also harvested and homogenized at 3 time points over 24 h after oral dose. The concentrations of prodrug and TFV metabolite in each of these samples was then quantified using LC–MS/MS methodology.
(§2) Healthy male C57BL/6 mice (8–12 weeks old) weighing 20–30 g were procured from Global, India. Three mice were housed in each cage. Temperature and humidity were maintained at 22 ± 3 °C and 30–70%, respectively, and illumination was controlled to provide for 12 h light and 12 h dark cycles. Temperature and humidity were recorded by an autocontrolled data logger system. All animals were provided a laboratory rodent diet (Envigo Research private Ltd., Hyderabad). Reverse osmosis H2O treated with ultraviolet light was provided ad libitum.
(§3) Male mice were divided into two groups (n = 18 total, n = 9 per treatment group, n = 3 per time point, sparse sampling). One group was intravenously administered a solution of 2a, 16g, and 16h in 10% PEG-300, 10% Solutol HS-15, and 80% saline at 3 mg/kg with a dosing volume of 5 mL/kg. The second group was administered a solution of 2a, 16g, and 16h in 10% EtOH and 90% olive oil at 10 mg/kg via oral gavage with a dosing volume of 10 mL/kg.
(§4) Blood samples (approximately 60 μL) were collected from retro-orbital plexus under light isoflurane anesthesia such that the samples were obtained predose, as well as at eight time points post dose: 0.1, 0.25, 0.5, 1, 2, 4, 6, and 8 (i.v.) and 0.25, 0.5, 1, 2, 4, 8, 12, and 24 h (p.o.). Immediately after blood collection, plasma samples were harvested by centrifugation at 4000 rpm and 4 °C for 10 min and stored at −70 °C until LC–MS/MS analysis. Following blood collection from p.o. group, liver, kidney, and brain samples were collected (n = 3 per treatment group per time point) at 1, 4, and 24 h post dose. After isolation, tissue samples were rinsed three times with ice-cold saline and dried with blotting paper. Next, the tissue samples were homogenized using ice-cold PBS (pH = 7.4), and the resulting homogenates were stored below −70 °C until LC-MS/MS analysis. The total homogenate volume was 3 times the brain weight and 5 times the liver and kidney weight.
(§5) Areas under the concentration–time curves (AUC0–8h and AUC0–24h) were calculated via the linear trapezoidal rule[65] using GraphPad Prism v9. Furthermore, terminal elimination rate constants k were determined using linear regression (slope = −k) of the terminal portion of semilog-transformed concentration–time curves (Figures S44, S45, S47, S48, S50, and S51).

[3] = Mouse plasma pharmacokinetics after oral dose; type: in vivo, male C57BL/6 mice; conditions: for bioavailability: oral; for bioavailability / bioavailability at 24 h: p.o. 10 mg/kg vs i.v. 3 mg/kg, read-out: %F (oral bioavailability); for AUC(0-t) at 24 h: read-out: AUC0–24h; for mean TFV concentration in plasma: p.o. 10 mg/kg of prodrug, LLOQ 4.84 ng/mL; for concentration at 0.25 h / mean TFV concentration in plasma: 0.25 h; for k (terminal elimination rate constant): 10 mg/kg
Experimental: as §1, §2, §3, §4, §5

HepaRG cellular uptake = conditions: human, HepaRG Cmax, 20 μM, HSA formulation 5:1, recorded after 3 h incubation
[4] = Cellular cytotoxicity (cell viability, CellTiter 96 or resazurin); conditions: human, CC50, HEK293T cells, compounds formulated with HSA (5:1)
Experimental: Second, HIV IC50 and cellular CC50 were determined with a pseudoviral, whole (HEK293T) cell, nonreplicative HIV assay, using the HIV-1 subtype C strain MJ4 (refer to Experimental Methods). To account for the unique amphiphilic properties of TXL and the novel HTP-based prodrugs, all compounds were formulated in a human serum albumin (HSA) solution (5:1 drug:protein).
Assessment of cytotoxicity and antiviral activity of all final compounds in vitro was conducted according to previously reported procedures.[39] In summary, human embryonic kidney (HEK293T) cells maintained in high glucose (25 mM), Dulbecco’s modified Eagle’s medium (DMEM) supplemented with fetal bovine serum (10%), sodium pyruvate (1 mM), L-glutamine (2 mM), HEPES (25 mM), and gentamicin (50 μg/mL) were used for determinations. The cells were maintained in an incubator at 37 °C under 5% CO2 in a humidified atmosphere. For both cytotoxicity and antiviral screening, all compounds were evaluated in duplicate in at least two independent experiments. All final compounds were formulated with human serum albumin (HSA, 5:1 compound to HSA molar ratio) and subsequently diluted with complete DMEM to 200 μM. Fifty microliters of test compound serial dilutions (3-fold) were prepared in 96-well culture plates, after which 50 μL of HEK293T cells (2 × 10^4 cells/well) was added. […] Cytotoxicity was then assessed by quantifying cell viability using the CellTiter 96 Aqueous One Solution Cell Proliferation Assay (Promega, Madison, WI) or resazurin sodium salt (cat# R7017, Merck, Darmstadt, Germany).[61] […] Antiviral activity was then assessed using a single-cycle, nonreplicating, envelope deleted HIV pseudoviral in vitro assay.[62],[63] The assay relies on the introduction of the firefly luciferase gene into HEK293T cells through infection with HIV-like viral particles, containing Reverse Transcriptase (RT) and Integrase (IN) from the HIV-1 subtype C strain MJ4.[64] The expression of the luciferase in the cells is directly proportional to the level of infection by the HIV-like viral particles and can be used to assess the inhibition of HIV-1 RT and IN. To evaluate anti-HIV activity, 3-fold serial dilutions of all final compounds were prepared in 50 μL over the noncytotoxic concentration range (as determined from the cytotoxicity screens described above) in 96-well culture plates. HEK293T cells (2 × 10^4 cells/well) and HIV-like viral particles, standardized to produce a luminescence signal of 1 × 10^6 relative light units (RLUs) in the growth medium only control, were combined, and 50 μL was added to the wells containing serially diluted test compounds. […] The expression of luciferase was subsequently quantified by adding 100 μL of the Bright-Glo Luciferase Assay substrate (Promega, Madison, WI) to each well of the 96-well plates. After incubation at rt for 3 min, luminescence was quantified on the GloMax Explorer Multimode Microplate Reader (Promega, Madison, WI).

[5] = 3 μM compound, NADPH, 37 °C, 120 min course
[6] = male, C57BL/6, mouse, plasma, po
[7] = male, C57BL/6, mouse, plasma, po, p.o. 10 mg/kg, read-out: mean prodrug concentration in plasma
[8] = male, C57BL/6, mouse, po, plasma, p.o. 10 mg/kg
[9] = male, C57BL/6, mouse, po, plasma, prodrug, p.o. 10 mg/kg
[10] = p.o. 10 mg/kg, 24 h, BLQ = below LLOQ (0.58 ng/mL 2a, 0.62 ng/mL 16g)

| SMILES | k (terminal elimination rate constant) [2] | Vd at 8 h ([2]; male, C57BL/6, mouse, iv) | clearance ([2]; male, C57BL/6, mouse, iv) | concentration at 0.1 h ([2]; male, C57BL/6, mouse, iv) | concentration at 0.25 h ([2]; male, C57BL/6, mouse, iv) | concentration at 0.5 h ([2]; male, C57BL/6, mouse, iv) | concentration at 1 h ([2]; male, C57BL/6, mouse, iv) | concentration at 2 h ([2]; male, C57BL/6, mouse, iv) | concentration at 4 h ([2]; male, C57BL/6, mouse, iv) | concentration at 6 h ([2]; male, C57BL/6, mouse, iv) | concentration at 8 h ([2]; male, C57BL/6, mouse, iv) | Cmax at 8 h ([2]; male, C57BL/6, mouse, iv) | Tmax at 8 h ([2]; male, C57BL/6, mouse, iv) | AUC(0-t) at 8 h ([2]; male, C57BL/6, mouse, iv) | bioavailability ([3]; male, C57BL/6, mouse, plasma) | bioavailability at 24 h [3, 6] | concentration at 0.25 h [3, 7] | concentration at 0.5 h [3, 7] | concentration at 1 h [3, 7] | concentration at 2 h [3, 7] | also measured |
| --- | --- | --- | --- | --- | --- | --- | --- | --- | --- | --- | --- | --- | --- | --- | --- | --- | --- | --- | --- | --- | --- |
| C[C@H](Cn1cnc2c(N)ncnc21)OCP(=O)(O)OCCCSCCCCCCCCCCCCC1CCCCC1.N [16h] | 0.5743 and 0.574 | 8.97 L/kg | 85.8 mL/min/kg | 2380 ng/mL | 522 ng/mL | 406 ng/mL | 127 ng/mL | 17.4 ng/mL | 8.98 ng/mL | 3.65 ng/mL | 1.41 ng/mL | 2380 ng/mL | 6 min | 583 ng·h/mL | 55% | 54.9% | 48.9 ng/mL | 79.1 ng/mL | 140 ng/mL | 195 ng/mL | remaining at 2 h, 3 μM [1]: 85%; half-life at 3 μM [1, 5]: > 2 h; half-life at 8 h ([2]; male, C57BL/6, mouse, iv): 1.21 h; concentration at 4 h [3, 7]: 59.2 ng/mL; concentration at 8 h [3, 7]: 36.1 ng/mL; concentration at 12 h [3, 7]: 38.2 ng/mL; concentration at 24 h ([3]; male, C57BL/6, mouse, plasma, po, p.o. 10 mg/kg, 24 h, BLQ = below LLOQ (0.58 ng/mL 2a, 0.62 ng/mL 16g), read-out: mean prodrug concentration in plasma): 0.87 ng/mL; half-life [3, 8]: 3.07 h; Cmax at 24 h [3, 9]: 195 ng/mL; Tmax at 24 h [3, 9]: 2 h; AUC(0-t) at 24 h [3, 9]: 1070 ng·h/mL; mean TFV concentration in plasma [3]: BLQ; Vd ([3]; plasma, p.o. 10 mg/kg): 22.8 L/kg; k (terminal elimination rate constant) ([3]; plasma, p.o. 10 mg/kg): 0.2258 and 0.226; Cmax at 3 h, 20 μM (HepaRG cellular uptake): 1410 ng/mL; CC50 at 48 h [4]: 48 µM |
| CCCCCCCCCCCCCCCCSCCCOP(=O)(O)CO[C@H](C)Cn1cnc2c(N)ncnc21.N [2a] | 0.4666 and 0.467 | 18.9 L/kg | 147 mL/min/kg | 2060 ng/mL | 320 ng/mL | 134 ng/mL | 57.1 ng/mL | 8.68 ng/mL | 3.75 ng/mL | 3.41 ng/mL | 1.21 ng/mL | 2060 ng/mL | 6 min | 340 ng·h/mL | 20% | 19.3% | 29.6 ng/mL | 51.8 ng/mL | 73.3 ng/mL | 48 ng/mL | HLM t1/2 ([1]; HLM 1 mg/mL, 3 μM compound, NADPH, 37 °C, 120 min course): 0.7 h and 0.695 ± 0.0383 h; half-life ([2]; male, C57BL/6, mouse, iv): 1.49 h; concentration at 4 h [3, 7]: 8.34 ng/mL; concentration at 8 h [3, 7]: 7.1 ng/mL; concentration at 12 h [3, 7]: 7.6 ng/mL; half-life at 24 h [3, 8]: 3.49 h; Cmax at 24 h [3, 9]: 73.3 ng/mL; Tmax [3, 9]: 1 h; AUC(0-t) at 24 h [3, 9]: 219 ng·h/mL; mean TFV concentration in plasma [3]: BLQ; mean prodrug concentration in plasma [3, 10]: BLQ; Vd ([3]; plasma, p.o. 10 mg/kg): 44.4 L/kg; k (terminal elimination rate constant) ([3]; plasma, p.o. 10 mg/kg): 0.1985 and 0.199; Cmax at 3 h, 20 μM (HepaRG cellular uptake): 828 ± 0.2 ng/mL; CC50 at 48 h [4]: 50 µM |
| C[C@H](Cn1cnc2c(N)ncnc21)OCP(=O)(O)OCCCSCCCCCCCCCCCCc1ccc(F)cc1.N [16g] | 0.4057 and 0.406 | 19.9 L/kg | 134 mL/min/kg | 863 ng/mL | 315 ng/mL | 227 ng/mL | 71.5 ng/mL | 21.6 ng/mL | 12.1 ng/mL | 7.5 ng/mL | 3.12 ng/mL | 863 ng/mL | 6 min | 373 ng·h/mL | 20% | 20.9% | 17 ng/mL | 43 ng/mL | 58.6 ng/mL | 55.9 ng/mL | remaining at 2 h, 3 μM [1]: 69%; half-life at 3 μM [1, 5]: > 2 h; half-life at 8 h ([2]; male, C57BL/6, mouse, iv): 1.71 h; concentration at 4 h [3, 7]: 16 ng/mL; concentration at 8 h [3, 7]: 11.2 ng/mL; concentration at 12 h [3, 7]: 10.5 ng/mL; half-life at 24 h [3, 8]: 4.19 h; Cmax at 24 h [3, 9]: 58.6 ng/mL; Tmax [3, 9]: 1 h; AUC(0-t) at 24 h [3, 9]: 260 ng·h/mL; mean TFV concentration in plasma [3]: BLQ; mean prodrug concentration in plasma [3, 10]: BLQ; Vd ([3]; plasma, p.o. 10 mg/kg): 48.7 L/kg; k (terminal elimination rate constant) ([3]; plasma, p.o. 10 mg/kg): 0.1654 and 0.165; Cmax at 3 h, 20 μM (HepaRG cellular uptake): 210 ng/mL; CC50 at 48 h [4]: > 100 µM |

Source: paper PMC11513920, “Building Metabolically Stable and Potent Anti-HIV Thioether-Lipid Analogues of Tenofovir Exalidex: A thorough Pharmacological Analysis” (Journal of Medicinal Chemistry, 2024)
